Data published in the supplement of paper PMC10307832.

Assays:
Test in all cases: relative viability (nuclei count vs DMSO), 5 days (fraction); higher = more cells survive
Bosutinib + OSI-027 = compound: COc1cc(Nc2c(C#N)cnc3cc(OCCCN4CCN(C)CC4)c(OC)cc23)c(Cl)cc1Cl [Bosutinib] + COc1cccc2cc(-c3nc([C@H]4CC[C@H](C(=O)O)CC4)n4ncnc(N)c34)[nH]c12 [OSI-027] (partner 0.5 µM)
Procedure, shortened: (§1)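 Each reported value is a median over duplicate plates. It expresses relative viability: treated-well nuclei count divided by vehicle-well nuclei count. Lung cancer cell lines in 1536-well plates were dosed by pin tool a day after seeding, alone with one drug or with a fixed anchor-drug dose plus five library-drug doses (not always all listed) in √10 steps, and nuclei were counted after 5 days.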

Bosutinib + Alpelisib = compound: COc1cc(Nc2c(C#N)cnc3cc(OCCCN4CCN(C)CC4)c(OC)cc23)c(Cl)cc1Cl [Bosutinib] + Cc1nc(NC(=O)N2CCC[C@H]2C(N)=O)sc1-c1ccnc(C(C)(C)C(F)(F)F)c1 [Alpelisib] (partner 2 µM)
Procedure, shortened: as §1

Bosutinib + Luminespib = compound: COc1cc(Nc2c(C#N)cnc3cc(OCCCN4CCN(C)CC4)c(OC)cc23)c(Cl)cc1Cl [Bosutinib] + CCNC(=O)c1noc(-c2cc(C(C)C)c(O)cc2O)c1-c1ccc(CN2CCOCC2)cc1 [Luminespib] (partner 0.01 µM)
Procedure, shortened: as §1

Bosutinib + Foretinib = compound: COc1cc(Nc2c(C#N)cnc3cc(OCCCN4CCN(C)CC4)c(OC)cc23)c(Cl)cc1Cl [Bosutinib] + COc1cc2c(Oc3ccc(NC(=O)C4(C(=O)Nc5ccc(F)cc5)CC4)cc3F)ccnc2cc1OCCCN1CCOCC1 [Foretinib] (partner 0.25 µM)
Procedure, shortened: as §1

Bosutinib + Decitabine = compound: COc1cc(Nc2c(C#N)cnc3cc(OCCCN4CCN(C)CC4)c(OC)cc23)c(Cl)cc1Cl [Bosutinib] + Nc1ncn([C@H]2C[C@H](O)[C@@H](CO)O2)c(=O)n1 [Decitabine] (partner 2 µM)
Procedure, shortened: as §1

Row | Cell Line | relative viability (Bosutinib + OSI-027; first compound 0.01 µM) | relative viability (Bosutinib + OSI-027; first compound 0.03162 µM) | relative viability (Bosutinib + OSI-027; first compound 0.1 µM) | relative viability (Bosutinib + OSI-027; first compound 1 µM) | relative viability (Bosutinib + Alpelisib; first compound 0.01 µM) | relative viability (Bosutinib + Alpelisib; first compound 0.03162 µM) | relative viability (Bosutinib + Alpelisib; first compound 0.1 µM) | relative viability (Bosutinib + Alpelisib; first compound 1 µM) | relative viability (Bosutinib + Luminespib; first compound 0.01 µM) | relative viability (Bosutinib + Luminespib; first compound 0.03162 µM) | relative viability (Bosutinib + Luminespib; first compound 0.1 µM) | relative viability (Bosutinib + Luminespib; first compound 1 µM) | relative viability (Bosutinib + Foretinib; first compound 0.01 µM) | relative viability (Bosutinib + Foretinib; first compound 0.03162 µM) | relative viability (Bosutinib + Foretinib; first compound 0.1 µM) | relative viability (Bosutinib + Foretinib; first compound 1 µM) | relative viability (Bosutinib + Decitabine; first compound 0.01 µM) | relative viability (Bosutinib + Decitabine; first compound 0.03162 µM) | relative viability (Bosutinib + Decitabine; first compound 0.1 µM) | relative viability (Bosutinib + Decitabine; first compound 1 µM)
1 | HOP-62 | 0.801 | 0.848 | 0.942 | 0.875 | 0.977 | 1 | 1.1 | 0.889 | 0.993 | 0.895 | 0.937 | 0.904 | 1.11 | 0.965 | 1.13 | 1.12 | 0.208 | 0.215 | 0.209 | 0.253
2 | EPLC-272H | 0.262 | 0.34 | 0.312 | 0.342 | 0.937 | 1.15 | 1.03 | 0.854 | 0.149 | 0.932 | 0.649 | 0.278 | 0.657 | 0.677 | 0.704 | 0.58 | 0.358 | 0.383 | 0.418 | 0.321
3 | COR-L 105 | 0.623 | 0.669 | 0.698 | 0.479 | 0.869 | 1.27 | 0.871 | 0.565 | 0.882 | 0.635 | 0.669 | 0.471 | 1.05 | 1.05 | 0.895 | 0.844 | 0.642 | 0.608 | 0.72 | 0.47
4 | NCI-H2009 | 0.681 | 0.799 | 0.746 | 0.522 | 1.2 | 1.15 | 1.1 | 0.767 | 1.01 | 1.08 | 1.06 | 0.671 | 1.22 | 1.24 | 1.2 | 0.857 | 0.365 | 0.468 | 0.345 | 0.36
5 | NCI-H23 | 0.583 | 0.605 | 0.601 | 0.533 | 0.674 | 0.666 | 0.519 | 0.546 | 0.197 | 0.205 | 0.204 | 0.195 | 0.939 | 1.03 | 0.979 | 0.723 | 0.35 | 0.305 | 0.321 | 0.287
6 | NCI-H727 | 0.605 | 0.817 | 0.564 | 0.529 | 0.59 | 0.549 | 0.537 | 0.449 | 0.233 | 0.477 | 0.55 | 0.504 | 0.91 | 0.859 | 0.639 | 0.568 | 0.848 | 1.03 | 0.909 | 0.764
7 | NCI-H1355 | 0.412 | 0.466 | 0.465 | 0.381 | 0.871 | 0.816 | 0.893 | 0.72 | 0.752 | 0.691 | 0.761 | 0.566 | 0.956 | 0.973 | 1.01 | 0.917 | 0.304 | 0.366 | 0.352 | 0.368
